Laboratory results published in ChEMBL document CHEMBL1150834, “Novel halogenated metabolites from the Malaysian Laurencia pannosa” (2001).

What was measured:
Assay type in all cases: functional
[1] = tested on: Chromobacterium violaceum; assay: Antibacterial activity against Chromobacterium violaceum after 24 hrs by paper disk method
Proteus mirabilis = assay: Antibacterial activity against Proteus mirabilis after 24 hrs by paper disk method
Vibrio cholerae = assay: Antibacterial activity against Vibrio cholerae after 24 hrs by paper disk method

| Structure (SMILES) | MIC [1] [µg] | MIC (Proteus mirabilis) [µg] | MIC (Vibrio cholerae) [µg] |
| --- | --- | --- | --- |
| C[C@@H]1[C@]2(CC[C@@](C)(Cl)[C@H](Br)C2)[C@]2(C)CC[C@@]1(C)O2 [PANNOSANE] | 60 |  |  |
| C=C1[C@@H](C)CC[C@@](C)(O)[C@@]12CC[C@@](C)(Cl)[C@H](Br)C2 [PANNOSANOL] | 100 | 60 | 100 |
| C#C/C=C\C[C@@H]1O[C@H]2C[C@@H]1O[C@H](CC)[C@@H](Br)C[C@@H]2Cl | 100 |  |  |
